Experimental data from US8796303B2, “Imidazo[2,1-G][1,7]naphthyridines for treating respiratory syncytial virus infections” (Biota Scientific Management Pty Ltd., priority 2010, dated 2014).
Converted amounts (≈) assume the structure as drawn. Where two headings read alike, the source gives them in different places.

What was measured:
[1] = Aqueous solubility by laser nephelometry; type: physicochemical; conditions: kinetic from dmso stock, 1% DMSO, 30 minute incubation at 25° C., range 1.6-100
Method: Test compounds prepared in DMSO were screened in duplicate over a range of concentrations (1.6-100 ug/mL) in different aqueous media (for example pH2 or pH6.5 buffers which are relevant to the stomach and upper regions of the small intestine). Test compounds were serially diluted in 100% DMSO ranging from 10-0.16 mg/mL. These diluted compounds were then added to test plates (UV Star Griener 96 well plates) containing assay buffers with a further 1:100 dilution keeping a constant 1% DMSO concentration across the plate.

[2] = test system: RSV A2; test: RSV antiviral CPE assay in HEp2 cells (MTT); type: cell-based, respiratory syncytial virus; conditions: human respiratory syncytial virus, HEp-2, 120 h; HEp2 cells, RSV A2 moi ~0.01, 5 days, CPE by MTT
Method: Compounds of the invention were tested for their antiviral activity against respiratory syncytial virus. Cytopathic effect (CPE) assays were performed essentially as described in the literature (see for example Watanabe et al, 1994, J. Virological Methods, 48:257). Serial dilutions of the test compounds were made in 96 well plates. HEp2 cells (1.0×10^4 cells/well) were infected with RSV at a low multiplicity of infection (e.g. RSV A2 at an moi of ˜0.01) and added to plates to assess antiviral activity. Uninfected HEp2 cells were used to assess compound cytotoxicity. Assays were incubated for 5 days at 37° C. in a 5% CO2 atmosphere. The extent of CPE was determined via metabolism of the vital dye 3-(4,5-dimethylthiaxol-2-yl)-2,5-diphenyltetrazolium bromide (MTT). MTT (1 mg/ml) was added to each well and plates incubated for 2 hours incubation at 37° C. Wells were aspirated, iso-propanol (200 μL) was added and absorbance values read at 540/650 nm. Compound concentrations that inhibited CPE by 50% (EC50) and developed cytotoxicity (CC50) were calculated using non-linear regression analysis. The CC50 values of the compounds tested were determined to be >5000 nM.

[3] = target: T1, hERG ion channel (Homo sapiens, UniProt Q12809); test: hERG ion channel inhibition (ScreenPatch assay, IonWorks Quattro); type: cell-based; conditions: for IC50: CHO cells stably transfected with hERG; for inhibition at 5 min, 100 µM: human, CHO cells stably transfected with hERG cDNA
T1 construct: expressed in transfected cells; host or cells: CHO cells
T1 sequence (Q12809 whole entry): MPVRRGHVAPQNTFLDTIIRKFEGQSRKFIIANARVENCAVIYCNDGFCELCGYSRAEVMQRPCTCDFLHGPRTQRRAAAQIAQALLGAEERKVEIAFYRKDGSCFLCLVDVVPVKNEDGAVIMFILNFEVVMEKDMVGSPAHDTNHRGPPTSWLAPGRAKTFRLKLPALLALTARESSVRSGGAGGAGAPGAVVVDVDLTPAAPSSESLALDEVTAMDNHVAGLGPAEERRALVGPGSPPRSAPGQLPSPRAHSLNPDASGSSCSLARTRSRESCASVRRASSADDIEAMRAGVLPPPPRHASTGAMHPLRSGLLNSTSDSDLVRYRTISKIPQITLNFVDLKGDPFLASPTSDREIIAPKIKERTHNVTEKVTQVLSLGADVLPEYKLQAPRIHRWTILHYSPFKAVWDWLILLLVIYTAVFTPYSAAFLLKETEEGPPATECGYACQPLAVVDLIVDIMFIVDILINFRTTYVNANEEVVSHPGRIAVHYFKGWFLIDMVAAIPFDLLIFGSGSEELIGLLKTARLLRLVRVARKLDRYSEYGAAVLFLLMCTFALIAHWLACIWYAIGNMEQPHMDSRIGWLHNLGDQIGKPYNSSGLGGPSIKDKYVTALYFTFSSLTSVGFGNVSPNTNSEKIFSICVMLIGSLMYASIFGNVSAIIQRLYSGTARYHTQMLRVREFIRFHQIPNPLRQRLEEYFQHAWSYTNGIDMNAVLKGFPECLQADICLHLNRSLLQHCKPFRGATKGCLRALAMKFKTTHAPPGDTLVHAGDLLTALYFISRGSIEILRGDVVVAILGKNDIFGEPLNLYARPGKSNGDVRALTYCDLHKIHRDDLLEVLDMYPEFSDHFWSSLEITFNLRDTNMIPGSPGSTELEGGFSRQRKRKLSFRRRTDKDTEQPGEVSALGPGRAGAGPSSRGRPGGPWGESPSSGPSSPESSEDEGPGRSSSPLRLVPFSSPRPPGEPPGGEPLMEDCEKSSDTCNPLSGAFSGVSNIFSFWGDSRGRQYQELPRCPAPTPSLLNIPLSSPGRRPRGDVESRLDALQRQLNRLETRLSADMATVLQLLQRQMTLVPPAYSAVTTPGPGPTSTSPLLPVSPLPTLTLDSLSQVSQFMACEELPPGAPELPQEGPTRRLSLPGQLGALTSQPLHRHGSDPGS
Method: The effects of compounds of the invention on the on hERG ion channel can be evaluated using an IonWorks Quattro™ system essentially as described in the literature (see for example Bridgland-Tayor et al, 2006, J. Pharmacological and Toxicological Methods 54: 189).
Four compound concentrations were applied to naïve cells via steel needles of a 48-channel pipettor. Each application consisted of addition of 6 μL of 2× concentrated test compounds to the total of 12 μL of final volume of the extracellular well of the Population Patch Clamp™ (PPC) planar electrode. Duration of exposure to each test compound concentration was at least five minutes.
Intracellular solution was loaded into the intracellular compartment of the PPC planar electrode. Cell suspensions (CHO cells stably transfected with hERG cDNA) are pipetted into the wells of the PPC planar electrode. After establishment of a whole-cell configuration, membrane currents were recorded using patch clamp amplifier in the IonWorks Quattro™ system. Two recordings of the ion channel currents were performed (before and 5 minutes after test compound application). hERG current was measured using a pulse pattern with fixed amplitudes (conditioning prepulse: −80 mV for 25 ms; test pulse +40 mV for 80 ms) from a holding potential of 0 mV. hERG current was measured as a difference between the peak current at 1 ms after the test step to +40 mV and the steady state current at the end of the step to +40 mV.
Data acquisition and analyses was performed using the IonWorks Quattro™ system operation software. The decrease in current amplitude after test compound application was used to calculate the percent block relative to control. A compound is considered to have a low hERG inhibition when the hERG IC50 is >500 times higher than the RSV A2 EC50. The hERG IC50 of the compounds tested was >500 times higher than the corresponding RSV A2 EC50 values.

[4] = pH 2, simulated gastric fluid, pH2 buffer, read-out: Solubility at pH2
[5] = pH 6.5, aqueous buffer, pH6.5 buffer, read-out: Solubility at pH6.5

Structure (SMILES) | solubility at 30 min [1, 4] | solubility at 30 min [1, 5] | EC50 [2] | IC50 [3] | inhibition at 5 min, 100 µM [3]
Cc1nocc1C(=O)N1CCN2C(=O)c3ncccc3C[C@]12c1ccc(Cl)cc1 (single isomer, unassigned) [Compound 2A] | 50 to 100 µg/mL (≈ 122 to 245 µM) | > 100 µg/mL | 0.0041 µM | 130 µM | 41.4%
Cc1nocc1C(=O)N1CCN2C(=O)c3ncccc3CC12c1ccc(Cl)cc1 (stereo not shown) [Compound 2, 10a-(4-chlorophenyl)-1-[(3-methyl-1,2-oxazol-4-yl)carbonyl]-2,3,10,10a-tetrahydroimidazo[2,1-g][1,7]naphthyridin-5(1H)-one] | 50 to 100 µg/mL (≈ 122 to 245 µM) | > 100 µg/mL | 0.0052 µM | 99.2 µM | 50.2%
